Values after ≈ are worked out from the molar mass of the structure shown.
Key:
E. coli JW5503 = test: MIC, broth microdilution, E. coli JW5503; format: cell-based; conditions: Escherichia coli, JW5503
Protocol: (§1) The microbial strains used in this study were obtained from the collection of the Gause Institute of New Antibiotics. […] Storage was carried out in accordance with CLSI guidelines. Prior to experimentation, the bacterial strains were revived from cryopreservation by inoculating them onto trypticase soy agar (Becton, Dickinson, France) and incubating at (36 ± 1) °C for 16–24 h. Individual morphologically homogeneous colonies were then suspended in sterile physiological saline, and the turbidity of the suspension was adjusted to 0.5 McFarland units using a DEN-1 spectrophotometer (Biosan, Riga, Latvia), which corresponds to a concentration of 1.5 × 10^8 CFU/mL.
(§2) The samples were dissolved in sterile distilled water or dimethyl sulfoxide (DMSO), depending on the physicochemical properties of the compounds under investigation, to a concentration of 10,000 µg/mL.
(§3) Activity was evaluated by determining the minimum inhibitory concentration (MIC) values using the microdilution method in Mueller–Hinton Broth (Beckton and Dickinson, Le Pont-de-Claix, France), in accordance with the standard procedure for assessing the antimicrobial susceptibility of microorganisms.
(§4) The analysis was conducted in 96-well microtiter plates (Medpolymer, Saint Petersburg, Russia). The bacterial inoculum was introduced within 15 min of preparation. […] Microbial growth in the presence of the tested compounds was compared to the growth control (without exposure to the test samples). The MIC was defined as the lowest concentration at which visible microbial growth was inhibited.

MTT cytotoxicity assay = format: cell-based; conditions: human, MTT test, HEK293T cells
Protocol: An MTT assay was conducted to assess the cytotoxicity of compounds on HEK293T cell lines. Cell line HEK293T was kindly provided by Dr. E. Knyazhanskaya. A total of 2500 cells per well were seeded into 96-well plates containing 100 μL of DMEM/F12 medium (Paneco LLC, Moscow, Russia) and incubated at 37 °C with 5% CO2 for 24 h prior to treatment. Dilutions of the test compounds 4a, 4b, 6a, and 6b, prepared in deionized sterile water, were added in 11 μL aliquots to achieve final concentrations ranging from 8.75 to 140 μg/mL (five dilutions per compound) in triplicate. The cells were incubated with the compounds for 72 h, after which 0.5 mg/mL of MTT reagent (Paneco LLC, Russia) was added. Following a 1.5 h incubation, the medium was removed, and 120 μL of DMSO was added to dissolve the blue formazan derivative formed by metabolically active cells. The absorbance at 565 nm was measured using a plate reader, and the data were normalized to untreated control cells. The half-maximal inhibitory concentration (IC50) was calculated using GraphPad Prism 5 software (GraphPad Software, Inc., San Diego, CA, USA).

[1] = test system: E. coli S30 Extract System, firefly luciferase synthesis; test: Cell-free translation inhibition assay (firefly luciferase synthesis); format: biochemical; conditions: final concentration of 2 μM; water = 100
Protocol: The inhibitory effects of the tested compounds on in vitro firefly luciferase synthesis were evaluated using the E. coli S30 Extract System for Linear Templates (Promega, Madison, WI, USA), as described previously. Briefly, reaction mixtures with a total volume of 5 μL were prepared, containing 0.1 mM of a mixture of all canonical amino acids, 4 U of RiboLock RNase Inhibitor (Thermo Fisher Scientific, Waltham, MA, USA), and 2 μM of the tested compounds. After pre-incubation at room temperature for 5 min, 100 ng of in vitro-transcribed firefly luciferase mRNA was added. The mixtures were then incubated at 37 °C for 20 min. After incubation, each reaction was supplemented with 5 μL of Bright-Glo™ reagent (Promega, Madison, WI, USA), and chemiluminescence was measured using a VICTOR X5 Multilabel Plate Reader (PerkinElmer, Waltham, MA, USA). The luminescence values were normalized to the negative control (water), which was assigned 100% activity.

[2] = test system: E. coli JW5503 kanS EF-G P610T; test: MIC in LB medium, aminoglycoside-resistant mutant EF-G P610T; format: cell-based; conditions: Escherichia coli, 18 h
Protocol: (§5) The determination of the minimum inhibitory concentration (MIC) was performed on three strains from the working collection of MSU: E. coli JW5503 [34], which lacked a kanamycin resistance cassette removed as per the method outlined in [39], and two strains derived from this strain through in vivo selection with kanamycin. The latter strains harbored P610T and P610L substitutions in the fusA gene. For the MIC determination, 100 μL (rows 2–11) and 200 μL (row 1) of LB liquid medium containing a 1:1000 dilution of overnight culture was added to each well of a 96-well transparent plate. Subsequently, 2 μL of a 50 μg/mL antibiotic solution was introduced into the first row, and serial two-fold dilutions were performed across each horizontal row, decreasing the antibiotic concentration incrementally. The final two rows were designated as controls: row 12 contained LB medium without cells or antibiotics, and row 11 contained cells without antibiotics. Following 18 h of incubation at 37 °C with constant agitation, the optical density at 590 nm (A590) was measured using a Victor X5 2030 spectrofluorometer (PerkinElmer, Waltham, MA, USA). The MIC was defined as the antibiotic concentration in the first well where no cell growth occurred. Each experiment was conducted in triplicate for all tested antibiotics.

M. smegmatis ATCC 607 = test: MIC, broth microdilution, M. smegmatis ATCC 607; format: cell-based; conditions: Mycolicibacterium smegmatis, ATCC607, Table 1, read-out: MIC
Protocol: as §1, §2, §3, §4

E. coli JW5503 kanS = test: MIC in LB medium, E. coli JW5503 kanS; format: cell-based; conditions: Escherichia coli, JW5503KANS, 18 h
Protocol: as §5

P. aeruginosa ATCC 27853 = test: MIC, broth microdilution, P. aeruginosa ATCC 27853; format: cell-based; conditions: for MIC: Pseudomonas aeruginosa, ATCC27853, P. aeruginosa ATCC 27853, Table 1, read-out: MIC
Protocol: The microbial strains used in this study were obtained from the collection of the Gause Institute of New Antibiotics. […] Storage was carried out in accordance with CLSI guidelines.
as §3, §4
(§6) The MIC values of the reference strains were required to fall within the acceptable ranges specified in [30], provided that standard assay conditions were maintained.

E. coli ATCC 25922 = test: MIC, broth microdilution, E. coli ATCC 25922; format: cell-based; conditions: for MIC: Escherichia coli, ATCC25922, Table 1, read-out: MIC
Protocol: as §1, §2, §3, §4, §6

S. aureus ATCC 29213 = test: MIC, broth microdilution, S. aureus ATCC 29213; format: cell-based; conditions: Staphylococcus aureus, ATCC29213, Table 1, read-out: MIC
Protocol: as §1, §2, §3, §4, §6

[3] = test system: resistant clinical isolates of P. aeruginosa; test: MIC against resistant clinical isolates of P. aeruginosa; format: cell-based; conditions: for MIC: Pseudomonas aeruginosa
Protocol: as §1, §2, §3, §4

[4] = test system: E. coli JW5503 kanS EF-G P610L; test: MIC in LB medium, aminoglycoside-resistant mutant EF-G P610L; format: cell-based; conditions: Escherichia coli, 18 h
Protocol: as §5

[5] = P. aeruginosa strain, Table 2 column 3, head prints 27853
[6] = P. aeruginosa strain, Table 2 column 4, head prints 27853
[7] = P. aeruginosa strain, Table 2 column 5, head prints 27853
[8] = P. aeruginosa strain, Table 2 column 6, head prints 27853
[9] = P. aeruginosa strain, Table 2 column 7, head prints 27853
[10] = multidrug-resistant clinical isolates P. aeruginosa 21653 and P. aeruginosa 21571

Row | Compound | MIC (E. coli JW5503) [µg/mL] | IC50 at 72 h (MTT cytotoxicity assay) [µg/mL] | % control signal (relative maximal rate of firefly luciferase accumulation in vitro) [1] [%] | MIC [2] [µg/mL] | MIC (M. smegmatis ATCC 607) [µg/mL] | MIC (E. coli JW5503 kanS) [µg/mL] | MIC (P. aeruginosa ATCC 27853) [µg/mL] | MIC (E. coli ATCC 25922) [µg/mL] | MIC (S. aureus ATCC 29213) [µg/mL] | MIC [3, 5] [µg/mL] | MIC [3, 6] [µg/mL] | MIC [3, 7] [µg/mL] | MIC [3, 8] [µg/mL] | MIC [3, 9] [µg/mL] | MIC [4] [µg/mL] | MIC [3, 10] [µg/mL] | MIC of control antibiotic (P. aeruginosa ATCC 27853; P. aeruginosa ATCC 27853, quality control, must fall in acceptable ranges of [30]) [µg/mL] | MIC of control antibiotic (E. coli ATCC 25922; quality control, must fall in acceptable ranges of [30]) [µg/mL] | resistance index ([3]; resistant clinical isolates of P. aeruginosa strains)
1 | NCCCNC[C@H]1O[C@H](O[C@@H]2[C@@H](O)[C@H](O[C@H]3O[C@H](CN)[C@@H](O)C[C@H]3N)[C@@H](N)C[C@H]2N)[C@H](O)[C@@H](N)[C@@H]1O [Compound 4b, 6″-(3-Aminopropyl-1-amino)-6″-deoxytobramycin acetate] | 8 | > 140 | 7 | 80 | 0.125 | 20 | 8 | 1 | 0.125 | 32 | 32 | > 32 | > 32 | > 32 | 80 | – | – | – | –
2 | NCCNC[C@H]1O[C@H](O[C@@H]2[C@@H](O)[C@H](O[C@H]3O[C@H](CN)[C@@H](O)C[C@H]3N)[C@@H](N)C[C@H]2N)[C@H](O)[C@@H](N)[C@@H]1O [Compound 4a, 6″-(2-Aminoethyamino)-6″-deoxytobramycin acetate] | 2 | > 140 | 0.02 | 40 | 0.125 | 10 | 1 | 0.5 | 0.125 | 16 | 32 | > 32 | > 32 | 32 | 40 | 16 to 32 | – | – | –
3 | N=C(N)NCCNC[C@H]1O[C@H](O[C@@H]2[C@@H](O)[C@H](O[C@H]3O[C@H](CN)[C@@H](O)C[C@H]3N)[C@@H](N)C[C@H]2N)[C@H](O)[C@@H](N)[C@@H]1O [Compound 6a, 6″-(2-Guanidinoethylamino)-6″-deoxytobramycin acetate] | 4 | > 140 | 0.4 | 40 | 0.125 | 10 | 1 | 1 | 0.125 | 16 | 16 | > 32 | 32 | 32 | 40 | 16 to 32 | – | – | –
4 | NC[C@H]1O[C@H](O[C@H]2[C@H](O)[C@@H](O[C@H]3O[C@H](CO)[C@@H](O)[C@H](N)[C@H]3O)[C@H](N)C[C@@H]2N)[C@H](N)C[C@@H]1O [Tobramycin, tobramycin] | 1 (≈ 2.14 µM) | 58 ± 3 (≈ 124 µM) | 0.01 | 20 (≈ 42.8 µM) | 0.06 (≈ 0.128 µM) | 5 (≈ 10.7 µM) | 0.5 (≈ 1.07 µM) | 0.25 (≈ 0.535 µM) | 0.06 (≈ 0.128 µM) | > 128 | > 128 | > 128 | > 32 | > 32 | 40 (≈ 85.6 µM) | – | 0.25 to 1 | 0.25 to 1 | > 256
5 | N=C(N)NCCCNC[C@H]1O[C@H](O[C@@H]2[C@@H](O)[C@H](O[C@H]3O[C@H](CN)[C@@H](O)C[C@H]3N)[C@@H](N)C[C@H]2N)[C@H](O)[C@@H](N)[C@@H]1O [Compound 6b, 6″-(3-Guanidinopropyl-1-amino)-6″-deoxytobramycin acetate] | 8 | > 140 | 21 | 80 | 0.25 | 40 | 2 | 2 | 0.5 | 16 | 32 | > 32 | > 32 | > 32 | 80 | – | – | – | –
